From patent US20200199102A1, “COMPOUNDS THAT PARTICIPATE IN COOPERATIVE BINDING AND USES THEREOF” (Revolution Medicines, Inc., priority 2017, published 2020)
Like-named read-outs stand apart in the source and are kept apart here.

Tests used:
HeLa-CyclophilinA cells = assay: Biosensor cell permeability assay (cyclophilin destabilizing mutant), HeLa-CyclophilinA cells; type: cell-based; conditions: 72 hrs
Method: (§1) Cell permeability of compounds can be determined using the following protocol.
(§2) This protocol utilizes a modified FKBP or cyclophilin destabilizing mutant to determine the bioactivity of FKBP binding compounds or cyclophilin binding compounds in whole cell assay.
(§3) DMEM, DMEM without Phenol Red, 10% FBS, 1× Sodium Pyruvate, 1× Glutamax. Add 125 μl of media with compound per well.
(§4) Plate HeLa-FKBP12 cells (for FKBP binding compounds) or HeLa-CyclophilinA cells (for cyclophilin binding compounds) and seed overnight at 5 k/well (approximately ˜18 hrs.). Using a multi-channel pipet, take out the old media and add ˜125 ul of new media with compounds. Compounds are diluted using DMEM without Phenol Red, 10% FBS, 1× Sodium Pyruvate, 1× Glutamax. Add 125 μL of media with compound per well. Cells are treated with compounds at concentration: 30, 10, 3.33, 1.11, 0.37, 0.12, 0.04 and 0.013 uM. Time points are taken at 72 hrs and plate read using plate reader with excitation/emission: 575/620.
(§5) Cell binding/permeability is calculated in fold-change (Total RFU of treated samples/total RFU of DMSO treated samples or total RFU above background (Total RFU minus total RFU of DMSO treated samples).

Cyclophilin A = target: T1, Cyclophilin A (Homo sapiens, UniProt P62937); assay: AlphaLISA inhibition of binding of biotinylated Cyclosporin A to FLAG tagged Cyclophilin A; conditions: for % signal: AlphaLISA signal; for % signal / % inhibition of CsA binding to Cyclophilin A: test concentration not given; for IC50: read-out: IC50 value of CsA binding to Cyclophilin A
T1 construct: made in house
T1 sequence (P62937 whole entry, species assumed): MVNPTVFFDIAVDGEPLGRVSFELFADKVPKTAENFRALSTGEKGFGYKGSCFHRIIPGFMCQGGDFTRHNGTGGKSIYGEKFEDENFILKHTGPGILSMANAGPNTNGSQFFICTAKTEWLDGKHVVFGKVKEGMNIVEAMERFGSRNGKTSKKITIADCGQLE
In short: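 Inhibition of biotin-CsA binding to FLAG-tagged Cyclophilin A read by AlphaLISA (ex 680, em 615 nm). Working stocks were 6 nM biotinylated CsA and 25 nM FLAG-CypA; beads and compound were combined first for 30 min, then protein added for 60 min, all at room temperature in the dark, with DMSO and cyclosporin A controls.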

FKBP12 [1] = target: T2, FKBP12 (Homo sapiens, UniProt P62942); assay: AlphaLISA inhibition of binding of biotinylated FK506 to FLAG tagged FKBP12; set-up: made in house; conditions: read-out: Binding affinity to FKBP12 (by displacement of FK506)
T2 sequence (P62942 whole entry, species assumed): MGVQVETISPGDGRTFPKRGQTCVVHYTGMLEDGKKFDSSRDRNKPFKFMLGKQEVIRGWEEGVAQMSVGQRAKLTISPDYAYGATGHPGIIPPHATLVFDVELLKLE
Source text: The binding of compounds of the invention to FKBP12 can be determined using the following protocol.
This protocol utilizes Perkin Elmers AlphaLISA technology platform to detect FKBP binders by measuring the inhibition of binding of biotinylated FK506 to FLAG tagged FKBP12.
10×TBST Buffer (Boston BioProducts IBB-181), Biotinylated FK506 (in-house), FLAG tagged FKBP (in-house); anti-FLAG Donor beads (PerkinElmer AS103) and Streptavidin Acceptor beads (PerkinElmer AL125); Compounds in DMSO (in-house), FK506.
Add 20 uL of 12.5 nM FKBP-FLAG working stock to each well of the 96-well plate. Add 1 uL of test compound (100% DMSO) to each well of the plate using the Janus MTD head and P20 tips (except control wells). Add 1 uL of DMSO to negative control wells and 1 uL of 50 uM FK506 solution to positive control wells. In the dark, add 20 uL of combined Donor/Acceptor beads to each well. Incubate in the dark for 30 minutes at room temperature. In the dark, add 10 uL of 5 nM biotinylated FK506 working stock to each well. Incubate in the dark for 60 minutes at room temperature. Protect plate from light until reading on Biotek Synergy2 Plate Reader; Alphalisa 96-well protocol (680 excitation/615 emission).

FKBP12 [2] = target: T2, FKBP12; assay: SPR binding of compound (analyte) to immobilized FKBP12
Method: This protocol utilizes Surface Plasmon Resonance (SPR) as a method to determine kinetics (KD, Ka, Kd) for the binding of compound (analyte) to immobilized FKBP12 (ligand).
Compound in 100% DMSO (in-house), 10×HBS-P+ buffer (GE Healthcare BR-1006-71), Assay buffer (1×HBS-P+ buffer, 1% DMSO), 12×HIS tagged FKBP12 (in-house).
Experiments are performed at 25° C. Stock solution of 12×HIS tagged FKBP12 is diluted to 100 nM in assay buffer (1% DMSO final). Approximately 500-600 RU of FKBP12 is immobilized on one of two flow cells of an activated NTA chip. The second flow cell is not activated as a reference for non-specific interaction of the analyte to the sensor chip. Various concentrations of compound (1 nM-1 μM range), serially diluted into the same assay buffer (1% DMSO final), are injected onto the FKBP12 surface and reference surface at a flow rate of 10 μl/min. The surface is regenerated between analyte injections with 350 mM EDTA.
The BiaEvaluation software program is used for data fitting. All data is reference subtracted against both the reference flow cell and a buffer injection. For kinetic analyses, data is locally fit to a 1:1 interaction model.
Experiments are performed at 25° C. Stock solution of 12×HIS tagged FKBP12 is diluted to 100 nM in assay buffer (1% DMSO final). Approximately 500-600 RU of FKBP12 is immobilized on one of two flow cells of an activated NTA chip. The second flow cell is not activated as a reference for non-specific interaction of the analyte to the sensor chip.

HeLa-FKBP12 cells = assay: Biosensor cell permeability assay (FKBP destabilizing mutant), HeLa-FKBP12 cells; type: cell-based; conditions: 72 hrs
Method: as §1, §2, §3, §4, §5

CEP250 [3] = target: T3, CEP250 (Homo sapiens, UniProt P62942+Q9BV73); assay: Crystal structure analysis of FKBP12-compound-CEP250 ternary complexes; conditions: FKBP12-compound-CEP250 crystal structure
T3 construct: CEP25011.4 (residues 2134-2231) (in-house); made in house
T3 sequence (Q9BV73 2134-2231): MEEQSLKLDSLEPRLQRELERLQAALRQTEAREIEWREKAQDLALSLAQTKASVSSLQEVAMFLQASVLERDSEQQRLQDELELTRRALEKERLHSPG
T3 sequence (P62942 whole entry, the tested form may be a part): as the sequence (P62942 whole entry, species assumed) above
Method: This protocol describes the crystallization and structure determination method for structures of FKBP12-Compound 2-CEP250 and FKBP12-F11-CEP250 ternary complexes.
A 3:1 molar excess of FKBP12-F2 or FKBP12-F11 binary complex is added to CEP25011.4 and incubated at 4° C. overnight to complete ternary complex formation. Pure ternary complex is isolated by gel filtration purification on a Superdex 200 column in 12.5 mM HEPES pH 7.4, 75 mM NaCl. Purified complex (at 10-20 mg/ml) is subjected to crystallization at 22° C. using sitting drop vapor diffusion. FKBP12-F2-CEP250 crystals grow in a well solution containing 0.2 M sodium malonate, 0.1 M HEPES 7.0, 21% PEG 3350. FKBP12-F11-CEP250 crystals grow in a well solution containing 0.1 M Tris pH 8.5, 0.2 M trimethylamine N-oxide, 22-24% PEG2000 MME. For data collection crystals are transferred to a solution containing mother liquor supplemented with 20-25% glycerol, and then frozen in liquid nitrogen. Diffraction datasets are collected at the Advanced Photon Source (APS) and processed with the HKL program. Molecular replacement solutions are obtained using the program PHASER in the CCP4 suite, using the published structure of FKBP12 (PDB-ID 1FKD) as a search model. Subsequent model building and refinement are performed according to standard protocols with the software packages CCP4 and COOT.

CEP250 [4] = target: T4, CEP250 (Homo sapiens, UniProt Q9BV73); assay: ITC binding of FKBP12-compound binary complexes to CEP250; conditions: FKBP12 10 μM + ligand 20 μM in cell, 298 K; for Kd: calculated from Ka = 1/Kd
T4 construct: CEP25011.4 (residues 2134-2231) (in-house); made in house

[5] = read-out: SPR affinity to FKBP12: KD, 25° C., Table 7

IC50 (HeLa-CyclophilinA cells) | % signal (Cyclophilin A) | IC50 (Cyclophilin A) | % inhibition of CsA binding to Cyclophilin A (Cyclophilin A) | IC50 (FKBP12 [1]) | SMILES | further results
 |  |  |  | 0.06 µM | CC1=CCC(O)CC(C(C)=CC(C)=CC2C=CC(O)C(O)C2)OC(=O)C2CCCCN2C(=O)CC2(O)OC(C(C)CC=CCC(O)C=C1)C(C)CC2C (stereo not drawn) [Compound F6] | Kd (FKBP12 [2]; [5]): 0.141 µM; IC50 (HeLa-FKBP12 cells): < 1 µM
 |  |  |  | 4.69 µM | CC(=CC1C=CC(O)C(O)C1)C=C(C)C1CC(O)CC1C(C)(O)C=CC(O)CC=CCC(C)C1OC(O)(CC(=O)N2CCCCC2C(=O)O)C(C)CC1C (stereo not drawn) [Compound F23] | IC50 (HeLa-FKBP12 cells): > 1 µM
 |  |  |  | 0.00051 µM | CC[C@H](Cc1ccccc1)[C@@H]1CCCCCC[C@@H](C)[C@H](O)[C@@H](C)[C@@H]2CC[C@@H](C)C(=O)C(O)(O2)C(=O)N2CCCC[C@H]2C(=O)O1 [Compound F11, (2S)-1-((4R,7S)-7-((2R,3S,4R,11S,12R)-12-benzyl-3,11-dihydroxy-4-methyltetradecan-2-yl)-2-hydroxy-4-methyl-3-oxooxepane-2-carbonyl)piperidine-2-carboxylic acid C-11 Lactone] | buried surface area of CEP250 contributed by FKBP12 (CEP250 [3]): 590 Å^2; total buried surface area of CEP250 (CEP250 [3]): 831 Å^2; total buried surface area of the ternary complex (CEP250 [3]): 1648 Å^2; Kd (FKBP12 [2]; KD, Example 10, 25° C., 1:1 interaction model): 0.0156 µM; Kd (FKBP12 [2]; SPR affinity to FKBP12: KD, 25° C., Table 7): 0.0215 µM; ΔG (CEP250 [4]; CEP25011.4 68 μM in syringe): −40.36 kJ*mol −mol−1; ΔH (CEP250 [4]; CEP25011.4 68 μM in syringe): −47.78 kJ*mol −mol−1; −T*ΔS (CEP250 [4]; CEP25011.4 68 μM in syringe): 7.41 kJ*mol −mol−1; Kd (CEP250 [4]; CEP25011.4 68 μM in syringe): 0.08 µM; ΔG (CEP250 [4]; CEP25029.4 118 μM in syringe): −36.74 kJ*mol −mol−1; ΔH (CEP250 [4]; CEP25029.4 118 μM in syringe): −58.48 kJ*mol −mol−1; −T*ΔS (CEP250 [4]; CEP25029.4 118 μM in syringe): 21.73 kJ*mol −mol−1; Kd (CEP250 [4]; CEP25029.4 118 μM in syringe): 0.36 µM
 |  |  |  | 0.355 µM | CCC(Cc1ccccc1)C1C=CCC=CCC(C)C(O)C(C)C2CCC(C)C(O)(CC(=O)N3CCCCC3C(=O)O1)O2 (stereo not drawn) [Compound F1] | Kd (FKBP12 [2]; [5]): 0.0715 µM

More lines, now with the values behind:

SMILES | IC50 (HeLa-CyclophilinA cells) | % signal (Cyclophilin A) | IC50 (Cyclophilin A) | % inhibition of CsA binding to Cyclophilin A (Cyclophilin A) | IC50 (FKBP12 [1]) | further results
C/C=C/C[C@@H](C)[C@@H](O)[C@H]1C(=O)N[C@@H](CC)C(=O)N(C)CC(=O)N(C)[C@@H](CCC)C(=O)N[C@@H](C(C)C)C(=O)N(C)[C@@H](CC(C)C)C(=O)N[C@@H](C)C(=O)N[C@H](C)C(=O)N(C)[C@@H](CC(C)C)C(=O)N(C)[C@@H](CC(C)C)C(=O)N(C)[C@@H](C(C)C)C(=O)N1C [Compound C44] | < 3 µM | −0.07% | < 2 µM | 100.07% |  | 
C/C=C/C[C@@H](C)[C@@H](O)[C@H]1C(=O)N[C@@H](CC)C(=O)N(C)CC(=O)N(C)[C@H](C(C)C)C(=O)N[C@@H](C(C)C)C(=O)N(C)[C@@H](CC(C)C)C(=O)N[C@@H](C)C(=O)N[C@H](C)C(=O)N(C)[C@@H](CC(C)C)C(=O)N(C)[C@@H](CC(C)C)C(=O)N(C)[C@@H](C(C)C)C(=O)N1C [Compound C42] | > 3 µM | 1.26% | < 2 µM | 98.74% |  | 
C/C=C/C[C@@H](C)[C@@H](O)[C@H]1C(=O)N[C@@H](CC)C(=O)N(C)CC(=O)N(C)[C@@H]([C@@H](C)CC)C(=O)N[C@@H](C(C)C)C(=O)N(C)[C@@H](CC(C)C)C(=O)N[C@@H](C)C(=O)N[C@H](C)C(=O)N(C)[C@@H](CC(C)C)C(=O)N(C)[C@@H](CC(C)C)C(=O)N(C)[C@@H](C(C)C)C(=O)N1C [Compound C33] | < 3 µM | −0.08% | < 2 µM | 100.08% |  | 
C/C=C/C[C@@H](C)[C@@H](O)[C@H]1C(=O)N[C@@H](CC)C(=O)N(C)CC(=O)N(C)[C@@H]([C@@H](C)O)C(=O)N[C@@H](C(C)C)C(=O)N(C)[C@@H](CC(C)C)C(=O)N[C@@H](C)C(=O)N[C@H](C)C(=O)N(C)[C@@H](CC(C)C)C(=O)N(C)[C@@H](CC(C)C)C(=O)N(C)[C@@H](C(C)C)C(=O)N1C [Compound C38] | < 3 µM | 1.57% | < 2 µM | 98.43% |  | 
C/C=C/C[C@@H](C)[C@@H](O)[C@H]1C(=O)N[C@@H](CC)C(=O)N(C)CC(=O)N(C)CC(=O)N[C@@H](C(C)C)C(=O)N(C)[C@@H](CC(C)C)C(=O)N[C@@H](C)C(=O)N[C@H](C)C(=O)N(C)[C@@H](CC(C)C)C(=O)N(C)[C@@H](CC(C)C)C(=O)N(C)[C@@H](C(C)C)C(=O)N1C [Compound C37] | > 3 µM | 1.56% | < 2 µM | 98.44% |  | 
C/C=C/C[C@@H](C)[C@@H](O)[C@H]1C(=O)N[C@@H](CC)C(=O)N(C)CC(=O)N(C)[C@H](C)C(=O)N[C@@H](C(C)C)C(=O)N(C)[C@@H](CC(C)C)C(=O)N[C@@H](C)C(=O)N[C@H](C)C(=O)N(C)[C@@H](CC(C)C)C(=O)N(C)[C@@H](CC(C)C)C(=O)N(C)[C@@H](C(C)C)C(=O)N1C [Compound C35] | > 3 µM | 0.89% | < 2 µM | 99.11% |  | 
C/C=C/C[C@@H](C)[C@@H](O)[C@H]1C(=O)N[C@@H](CC)C(=O)N(C)CC(=O)N(C)[C@@H](Cc2ccc(O)cc2)C(=O)N[C@@H](C(C)C)C(=O)N(C)[C@@H](CC(C)C)C(=O)N[C@@H](C)C(=O)N[C@H](C)C(=O)N(C)[C@@H](CC(C)C)C(=O)N(C)[C@@H](CC(C)C)C(=O)N(C)[C@@H](C(C)C)C(=O)N1C [Compound C39] | < 3 µM | 3.78% | < 2 µM | 96.22% |  | 
C/C=C/C[C@@H](C)[C@@H](O)[C@H]1C(=O)N[C@@H](CC)C(=O)N(C)CC(=O)N(C)[C@@H](CCCC)C(=O)N[C@@H](C(C)C)C(=O)N(C)[C@@H](CC(C)C)C(=O)N[C@@H](C)C(=O)N[C@H](C)C(=O)N(C)[C@@H](CC(C)C)C(=O)N(C)[C@@H](CC(C)C)C(=O)N(C)[C@@H](C(C)C)C(=O)N1C [Compound C43] | < 3 µM | 0.29% | < 2 µM | 99.71% |  | 
C/C=C/C[C@@H](C)[C@@H](O)[C@H]1C(=O)N[C@@H](CC)C(=O)N(C)CC(=O)N(C)[C@@H](C)C(=O)N[C@@H](C(C)C)C(=O)N(C)[C@@H](CC(C)C)C(=O)N[C@@H](C)C(=O)N[C@H](C)C(=O)N(C)[C@@H](CC(C)C)C(=O)N(C)[C@@H](CC(C)C)C(=O)N(C)[C@@H](C(C)C)C(=O)N1C [Compound C34] | < 3 µM | −0.01% | < 2 µM | 100.01% |  | 
